Measurements: patent US10709718B2, “Inhibitors of diacylglycerol O-acyltransferase 1 (DGAT-1) and uses thereof” (Metabasis Therapeutics, Inc., priority 2009, dated 2020)
Read-outs that look alike come from different tables or passages of the source.

How the values were obtained:
hDGAT1 = hDGAT1 (Homo sapiens (Human), UniProt O75907); test: Inhibition of human microsomal DGAT activity (14C-TAG formation, intestinal microsomes); format: biochemical
Experimental: The inhibition of DGAT-1 activity can be assessed in intestinal microsome preparations by monitoring the incorporation of radiolabeled fatty acyl-CoA into […].
Methods: Commercial microsomal preparations containing 60 ug of protein are incubated in assay buffer [20 uM 1,2-didecanloyl glycerol, 5 uM ^14C decanoyl-CoA, 5 mM MgCl2, 0.4% BSA, 0.1% dimethyl sulfoxide (DMSO), 50 mM HEPES-pH 7.5] in the presence of varying concentrations of inhibitors that are dispensed from 100% DMSO stock solutions. Final assay volumes are 200 uL. Reactions are carried out for 45 minutes in 96-well polystyrene microtiter plates at ambient temperature. Following the ambient temperature incubation, assay mixtures are applied to a 96-well filter plate (Catalog # MSHVN4510, Millipore Inc.; Billerica, Mass.) under vacuum. The filter plate is pre-equilibrated with 100 uL of 70% ethanol followed by 200 uL of assay buffer. […] De novo ^14C-TAG formed in the assay and trapped on the filters is quantified with use of a liquid scintillation counter (Model # LS6500 Beckman Coulter, Inc.; Fullerton, Calif.).

Sprague Dawley rats = test: In vivo assay for intestinal triglyceride export (serum TAG after olive oil gavage); design: species or system rat; details: oral administration, doses in the range of 0.1 to 30 mg/kg
Experimental: The following screen can be used to evaluate the effects of DGAT-1 inhibitors on the export of dietary TAGs from the intestine to the circulation in rodents (male Sprague Dawley rats or C57BL/6 mice).
Methods: Animals (housed 2/cage) are fasted overnight, and dosed (PO) the next day with vehicle (1% Tween-80) or test compound at doses ranging from 0.01 to 30 mg/kg, followed by an oral gavage of olive oil. Blood samples are taken at baseline and at appropriate intervals over the course of 4 hours. Serum TAG levels are determined using the Infinity triglyceride reagent per the manufacturer's instructions.

[1] = Plasma pharmacokinetics and oral bioavailability in rats; format: in vivo, rat; details: male Sprague Dawley rats, 5 mg/kg, LOQ 0.001 ug/mL
Experimental: Pharmacokinetic studies in rats are useful for the identification of DGAT-1 inhibitors that have low oral bioavailability and show low systemic exposure (i.e. low circulating levels in plasma).
Methods: Groups of male Sprague Dawley rats (200-250 g) (n=3/group) were administered either an IV bolus (1% Tween-80, pH adjusted to 7, vehicle) or an oral gavage (50% PEG-200 in 1% Tween-80 vehicle) of 5 mg/kg of each DGAT-1 inhibitor. Blood (EDTA) was collected by tail nick at 0.5, 1, 2, 4, 8, 10-12 and 24 hr post dose. Following centrifugation of the blood to obtain plasma, the samples were analyzed by LC-MS/MS method for active metabolite. The pharmacokinetic parameters were calculated by noncompartmental analysis of the plasma concentration-time profile of the active metabolite. The oral bioavailability was determined by dividing the dose-normalized plasma AUC value of the active metabolite following oral administration of the DGAT-1 inhibitor by the plasma AUC value of the active metabolite after IV bolus administration.

[2] = microsomal preparation, 14C decanoyl-CoA, 45 min, ambient temperature

hDGAT1, sequence (O75907 whole entry): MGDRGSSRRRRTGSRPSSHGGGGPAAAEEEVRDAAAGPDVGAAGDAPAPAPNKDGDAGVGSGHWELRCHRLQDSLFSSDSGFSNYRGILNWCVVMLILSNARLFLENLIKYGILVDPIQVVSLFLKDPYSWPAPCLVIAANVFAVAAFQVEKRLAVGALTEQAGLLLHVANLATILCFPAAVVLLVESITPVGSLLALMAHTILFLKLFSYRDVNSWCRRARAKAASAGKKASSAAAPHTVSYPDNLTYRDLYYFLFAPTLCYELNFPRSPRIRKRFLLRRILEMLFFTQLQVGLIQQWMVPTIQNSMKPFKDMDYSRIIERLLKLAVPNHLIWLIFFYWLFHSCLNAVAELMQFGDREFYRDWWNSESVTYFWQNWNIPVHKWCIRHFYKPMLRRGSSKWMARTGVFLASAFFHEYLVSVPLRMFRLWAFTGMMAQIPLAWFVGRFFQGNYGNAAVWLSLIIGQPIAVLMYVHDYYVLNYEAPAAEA

SMILES	IC50 (hDGAT1; [2]) [µM]	other results
CC1(C)Oc2ncnc(N)c2N=C1c1ccc([C@H]2CC[C@H](CP(=O)(O)C3CC3)CC2)cc1 [Compound 23]	< 0.01	–
CC1(C)Oc2ncnc(N)c2N=C1c1ccc([C@H]2CC[C@H](CP(=O)(O)c3ccccc3)CC2)cc1 [Compound 21]	< 0.01	–
CC1(C)Oc2ncnc(N)c2N=C1c1ccc([C@H]2CC[C@H](OP(=O)(O)Cc3ccc(C(=O)O)cc3)CC2)cc1 [Compound 17]	< 0.01	–
CCOP(=O)(O)OC1CCC(c2ccc(C3=Nc4c(N)ncnc4OC3(C)C)cc2)CC1 (stereo not shown) [Compound 9]	–	IC50 (hDGAT1): < 0.01 µM
CC(C)COP(=O)(O)O[C@H]1CC[C@H](c2ccc(C3=Nc4c(N)ncnc4OC3(C)C)cc2)CC1 [Compound 8]	< 0.01	–
CC1(C)Oc2ncnc(N)c2N=C1c1ccc([C@H]2CC[C@H](CP(C)(=O)O)CC2)cc1 [Compound 1]	< 0.01	AUC0-4h of serum TAGs (Sprague Dawley rats): reduced; Cmax [1]: 9 ng/mL
CP(=O)(O)[C@@H]1CCC[C@H]1C(=O)c1ccc(-c2ccc(NC(=O)Nc3ccccc3)cc2)cc1 [Compound 2]	–	AUC0-4h of serum TAGs (Sprague Dawley rats): reduced; Cmax [1]: 5 ng/mL
CP(=O)(O)C[C@H]1CC[C@H](c2ccc(NC(=O)c3nnc(Nc4ccc(F)c(F)c4)o3)cc2)CC1 [Compound 5]	< 0.01	AUC0-4h of serum TAGs (Sprague Dawley rats): reduced; Cmax [1]: 3 ng/mL
CC1(C)Oc2ncnc(N)c2N=C1c1ccc(C2CCC(OP(=O)(O)OC3CCCC3)CC2)cc1 (stereo not shown) [Compound 10]	< 0.01	–
CC1(C)Oc2ncnc(N)c2N=C1c1ccc([C@H]2CC[C@H](OP(=O)(O)O)CC2)cc1 [Compound 3]	< 0.01	–
CC1(C)Oc2ncnc(N)c2N=C1c1ccc([C@H]2CC[C@H](OP(=O)(O)c3cccs3)CC2)cc1 [Compound 19]	< 0.01	–
CC1(C)Oc2ncnc(N)c2N=C1c1ccc(C2CCC(OP(=O)(O)Cc3ccccc3)CC2)cc1 (stereo not shown) [Compound 11]	< 0.01	–
CC1(C)Oc2ncnc(N)c2N=C1c1ccc([C@H]2CC[C@H](OP(=O)(O)c3ccsc3)CC2)cc1 [Compound 20]	< 0.01	–
CC1(C)Oc2ncnc(N)c2N=C1c1ccc([C@H]2CC[C@H](OP(=O)(O)c3ccccc3)CC2)cc1 [Compound 14]	< 0.01	–
